# In US11643439B2, “Multi-target compound with anticoagulation and antiplatelet activity, preparation method therefor, and use thereof” (SHAANXI MICOT TECHNOLOGY LIMITED COMPANY, priority 2015, dated 2023):
# Bridge positions count the residues as written; N and C are the ends. Square brackets hold non-standard residues; d marks the D form. Peptide text beside a SMILES is read from it. hArg = N=C(N)NCCCC[C@H](N)C(=O)O; Mpa = O=C(O)CCS
# Tested on: ADP-induced human platelet aggregation
# Assay: ADP-induced human platelet aggregation in vitro
# Assay type: cell-based
# Conditions: human PRP, 3 × 10−6 mol/L
# Procedure: The drawn blood was centrifuged at 810 rpm for 8 minutes to obtain platelet rich plasma (PRP), which was taken out, then the blood sample was further centrifuged at 3510 rpm for 8 minutes to obtain platelet poor plasma (PPP).
# Determination of platelet aggregation: A platelet aggregation instrument was started up and preheated for 30 minutes, and then calibrated with PPP. Into the test cups 270 μl of PRP was added, and then 10 μl of polypeptide 1, polypeptide 2, polypeptide 3 or polypeptide 4 (1.0×10^−7 mol/L) and/or 20 μl of physiological saline were added respectively, till a total volume of 300 μl. After incubation for 5 min, 5 μl of inducer ADP and 5 μl of epinephrine were added to start the test. After 5 minutes, the test was completed, and the maximum aggregation rate within the 5 minutes was recorded, and the data and maps were printed.
compound,measurement,value
N=C(N)NCCCC[C@@H]1NC(=O)CCSSC[C@@H](C(N)=O)NC(=O)[C@@H]2CCCN2C(=O)[C@H](Cc2c[nH]c3ccccc23)NC(=O)[C@H](CC(=O)O)NC(=O)CNC1=O [Integrilin] ([Mpa][hArg]GDWPC-NH2; disulfide 1-7),inhibitory rate of platelet aggregation,100%
